# Results reported in patent publication US20030119067A1, “PYK2 related products and methods” (Sugen, Inc., priority 1996, published 2003).
# Tested on: PYK-2
# Assay: Tyrosine phosphorylation of PYK-2 in NIH3T3 cells overexpressing PYK-2
# Type: cell-based
# Details: NIH3T3 cells overexpressing PYK-2 / PYK-2-HA; TPA 6 μM, 15 min, 37° C.
# Source text: The PYK-2 cDNA cloned in pLSV was cotransfected with pSV2neo into PC12 cells and NIH3T3 in order to establish stable cell lines. G418 resistant colonies were screened by immunoprecipitating and immunoblotting.
# NIH3T3 cell lines were established that overexpress the PYK-2 and the PYK-2-HA protein. […] The level of phosphorylation is not so high.
structure (smiles),measurement,value
"CCCCCCCCCCCCCC(=O)O[C@@H]1[C@@H](C)[C@@]2(O)[C@@H](C=C(CO)C[C@]3(O)C(=O)C(C)=C[C@@H]23)[C@@H]2C(C)(C)[C@]12OC(C)=O [PMA, phorbol 12-myristate 13-acetate]",tyrosine phosphorylation of PYK-2,stronger effect
